The test system of this assay is MPNST complex spheroid with HUVEC/MSC, growth, % test/control. Nature of the assay: Anticancer human tumor MPNST cell line growth inhibition [Asc].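 For all read-outs here: compounds left on spheroids for seven days before reading.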 The following applies: for viability, T/C: stronger effect = lower value. The method, boiled down: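 Tumor cells were grown as complex spheroids with human endothelial cells (HUVEC) and human mesenchymal stem cells as stroma. Agents were tested alone and in combination, in half-log steps down from the clinical Cmax, or from 10 microM where Cmax was unknown.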

The mark [1] stands for this setting: curve of first compound, second compound 0.03 µM.
Setting [2] is: curve of first compound, second compound 0.0949 µM.
The mark [3] stands for this setting: curve of first compound, second compound 0.3 µM.
[4] abbreviates: curve of first compound, second compound 0.949 µM.
[5] abbreviates: curve of first compound, second compound 3 µM.
Where [6] appears, read: second compound 0.03 µM, first compound 0.00316 µM.
[7] abbreviates: second compound 0.03 µM, first compound 0.01 µM.
[8] abbreviates: second compound 0.03 µM, first compound 0.0316 µM.
The mark [9] stands for this setting: second compound 0.03 µM, first compound 0.1 µM.
The mark [10] stands for this setting: second compound 0.0949 µM, first compound 0.00316 µM.
Where [11] appears, read: second compound 0.0949 µM, first compound 0.01 µM.
The mark [12] stands for this setting: second compound 0.0949 µM, first compound 0.0316 µM.
[13] abbreviates: second compound 0.0949 µM, first compound 0.1 µM.
Where [14] appears, read: second compound 0.3 µM, first compound 0.00316 µM.
The mark [15] stands for this setting: second compound 0.3 µM, first compound 0.01 µM.
[16] abbreviates: second compound 0.3 µM, first compound 0.0316 µM.
[17] abbreviates: second compound 0.3 µM, first compound 0.1 µM.
Setting [18] is: second compound 0.949 µM, first compound 0.00316 µM.
Where [19] appears, read: second compound 0.949 µM, first compound 0.01 µM.
The mark [20] stands for this setting: second compound 0.949 µM, first compound 0.0316 µM.
The mark [21] stands for this setting: second compound 0.949 µM, first compound 0.1 µM.
Setting [22] is: second compound 3 µM, first compound 0.00316 µM.
[23] abbreviates: second compound 3 µM, first compound 0.01 µM.
The mark [24] stands for this setting: second compound 3 µM, first compound 0.0316 µM.
Setting [25] is: second compound 3 µM, first compound 0.1 µM.

Where “and” joins values, the source holds several entries; their conditions need not be identical. Identical values can stand only once. Where only a bound is given, the exact number is not on record here.

As for `Cn1ncnc1[C@H]1c2n[nH]c(=O)c3cc(F)cc(c23)N[C@@H]1c1ccc(F)cc1` + CCN1C(C(=O)NC23CCC(C(=O)O)(CC2)CC3)C(c2cccc(Cl)c2F)C2(C(=O)Nc3cc(Cl)ccc32)C12CCCCC2, the concentration for half-maximal inhibition (IC50) under setting [1] is 0.0472 µM; the half-maximal inhibitory concentration (IC50) under setting [2] was greater than 0.1 µM; the IC50 under setting [3] was greater than 0.1 µM; the half-inhibitory concentration (IC50) under setting [4] was greater than 0.1 µM; the concentration for half-maximal inhibition (IC50) under setting [5] is greater than 0.1 µM. Further, the viability, T/C (second compound 0.03 µM, first compound 0.000316 µM) is 84.6%; the viability, T/C (second compound 0.03 µM, first compound 0.001 µM) was 82%; the viability, T/C under setting [6] is 80.2%; the viability, T/C under setting [7] was 65.9%; the viability, T/C under setting [8] was 54.4%; the viability, T/C under setting [9] was 43.4%. Moreover, the viability, T/C runs as follows: (second compound 0.0949 µM, first compound 0.000316 µM) 106%; (second compound 0.0949 µM, first compound 0.001 µM) 91.9%; under setting [10], 97.7%; under setting [11], 95.5%; under setting [12], 74.9%; under setting [13], 52.1%. Besides, the viability, T/C is 106% (second compound 0.3 µM, first compound 0.000316 µM); 92.9% (second compound 0.3 µM, first compound 0.001 µM); 88.4% under setting [14]; 91.7% under setting [15]; 91.1% under setting [16]; 57.7% under setting [17]. In addition, the viability, T/C by setting is: (second compound 0.949 µM, first compound 0.000316 µM) 80.2%; (second compound 0.949 µM, first compound 0.001 µM) 109%; under setting [18], 79.8%; under setting [19], 90.6%; under setting [20], 81.2%; under setting [21], 70.7%. Besides, the viability, T/C is, setting by setting: (second compound 3 µM, first compound 0.000316 µM) 97.1%; (second compound 3 µM, first compound 0.001 µM) 94.3%; under setting [22], 89.8%; under setting [23], 86.6%; under setting [24], 73.6%; under setting [25], 72.7%.

On to `CCN1C(C(=O)NC23CCC(C(=O)O)(CC2)CC3)C(c2cccc(Cl)c2F)C2(C(=O)Nc3cc(Cl)ccc32)C12CCCCC2` (stereo not drawn) + Cc1c(S(C)(=O)=O)c(-c2cc(F)cc(N3CCN(c4ccc(NS(=O)(=O)c5ccc(NC(CCN6CCC(C(=O)OCCCP(=O)(O)O)CC6)CSc6ccccc6)c(S(=O)(=O)C(F)(F)F)c5)cc4)CC3)c2)c(-c2ccc(Cl)cc2)n1C(C)C, for which the IC50 (curve of first compound, second compound 0.1 µM) is greater than 3 µM; the IC50 (curve of first compound, second compound 0.316 µM) was greater than 3 µM; the half-maximal inhibitory concentration (IC50) (curve of first compound, second compound 1 µM) was greater than 3 µM; the IC50 (curve of first compound, second compound 3.16 µM) was greater than 3 µM; the IC50 (curve of first compound, second compound 10 µM) is greater than 3 µM. Moreover, the viability, T/C by setting is: (second compound 0.1 µM, first compound 0.00949 µM) 66.3%; (second compound 0.1 µM, first compound 0.03 µM) 92.1%; (second compound 0.1 µM, first compound 0.0949 µM) 78.6%; (second compound 0.1 µM, first compound 0.3 µM) 69.6%; (second compound 0.1 µM, first compound 0.949 µM) 82.5%; (second compound 0.1 µM, first compound 3 µM) 58.6%. Also, the viability, T/C was 84% (second compound 0.316 µM, first compound 0.00949 µM); 76.4% (second compound 0.316 µM, first compound 0.03 µM); 75.2% (second compound 0.316 µM, first compound 0.0949 µM); 66.9% (second compound 0.316 µM, first compound 0.3 µM); 58.5% (second compound 0.316 µM, first compound 0.949 µM); 60.3% (second compound 0.316 µM, first compound 3 µM). The viability, T/C reads like this: (second compound 1 µM, first compound 0.00949 µM) 83.1%; (second compound 1 µM, first compound 0.03 µM) 77.6%; (second compound 1 µM, first compound 0.0949 µM) 78.9%; (second compound 1 µM, first compound 0.3 µM) 66.6%; (second compound 1 µM, first compound 0.949 µM) 58.8%; (second compound 1 µM, first compound 3 µM) 63%. Further, the viability, T/C (second compound 3.16 µM, first compound 0.00949 µM) was 77.9%; the viability, T/C (second compound 3.16 µM, first compound 0.03 µM) is 69.7%; the viability, T/C (second compound 3.16 µM, first compound 0.0949 µM) was 92.9%; the viability, T/C (second compound 3.16 µM, first compound 0.3 µM) is 59.1%; the viability, T/C (second compound 3.16 µM, first compound 0.949 µM) was 61.6%; the viability, T/C (second compound 3.16 µM, first compound 3 µM) is 56.7%. In addition, the viability, T/C runs as follows: (second compound 10 µM, first compound 0.00949 µM) 85.9%; (second compound 10 µM, first compound 0.03 µM) 82.3%; (second compound 10 µM, first compound 0.0949 µM) 75.4%; (second compound 10 µM, first compound 0.3 µM) 68.8%; (second compound 10 µM, first compound 0.949 µM) 56.5%; (second compound 10 µM, first compound 3 µM) 58.3%.

For `Cn1ncnc1[C@H]1c2n[nH]c(=O)c3cc(F)cc(c23)N[C@@H]1c1ccc(F)cc1`, the viability, T/C (compound 0.000316 µM) is 96.5% and 77% and 100%; the viability, T/C (compound 0.001 µM) is 85.1% and 66.4% and 78.8%; the viability, T/C (compound 0.00316 µM) is 81.7% and 67.3% and 52.8%; the viability, T/C (compound 0.01 µM) is 80.5% and 61.2% and 65.7%; the viability, T/C (compound 0.0316 µM) was 70% and 42.6% and 64.6%; the viability, T/C (compound 0.1 µM) was 75.9% and 56.8% and 44%. Further, under “curve of compound”, the IC50 is > 0.1 µM and 0.0307 µM.

In the case of `CCN1CCN(Cc2ccc(Nc3ncc(F)c(-c4cc(F)c5nc(C)n(C(C)C)c5c4)n3)nc2)CC1` + CCN1C(C(=O)NC23CCC(C(=O)O)(CC2)CC3)C(c2cccc(Cl)c2F)C2(C(=O)Nc3cc(Cl)ccc32)C12CCCCC2, the concentration for half-maximal inhibition (IC50) is, setting by setting: under setting [1], greater than 1 µM; under setting [2], greater than 1 µM; under setting [3], greater than 1 µM; under setting [4], greater than 1 µM; under setting [5], greater than 1 µM. The viability, T/C reads like this: under setting [6], 107%; under setting [7], 109%; under setting [8], 88.7%; under setting [9], 75.3%; (second compound 0.03 µM, first compound 0.316 µM) 64.5%; (second compound 0.03 µM, first compound 1 µM) 72.6%. Besides, the viability, T/C is 98.1% under setting [10]; 111% under setting [11]; 104% under setting [12]; 106% under setting [13]; 73.9% (second compound 0.0949 µM, first compound 0.316 µM); 77% (second compound 0.0949 µM, first compound 1 µM). The viability, T/C reads like this: under setting [14], 113%; under setting [15], 93.9%; under setting [16], 87.1%; under setting [17], 103%; (second compound 0.3 µM, first compound 0.316 µM) 115%; (second compound 0.3 µM, first compound 1 µM) 90.1%. For the same molecule, the viability, T/C runs as follows: under setting [18], 105%; under setting [19], 91.6%; under setting [20], 92.1%; under setting [21], 92.3%; (second compound 0.949 µM, first compound 0.316 µM) 90.2%; (second compound 0.949 µM, first compound 1 µM) 91.4%. In addition, the viability, T/C by setting is: under setting [22], 107%; under setting [23], 92%; under setting [24], 91.9%; under setting [25], 76.5%; (second compound 3 µM, first compound 0.316 µM) 89.3%; (second compound 3 µM, first compound 1 µM) 85.7%.

In the case of `Cc1c(S(C)(=O)=O)c(-c2cc(F)cc(N3CCN(c4ccc(NS(=O)(=O)c5ccc(NC(CCN6CCC(C(=O)OCCCP(=O)(O)O)CC6)CSc6ccccc6)c(S(=O)(=O)C(F)(F)F)c5)cc4)CC3)c2)c(-c2ccc(Cl)cc2)n1C(C)C` (stereo not drawn), the IC50 (compound alone, run of 10/11/2022) was greater than 10 µM.
